Assay results from US9766249B2, “Compositions and methods for prediction of drug sensitivity, resistance, and disease progression” (BioMarker Strategies, LLC, priority 2010, dated 2017).
“Also recorded” adds a separate entry of the source. Read-outs that look alike come from different tables or passages of the source.

Tests used:
SK-MEL-31 [1] = conditions: BRAF-wt, RAS-wt; cited from earlier work
SK-MEL-28 [2] = conditions: BRAF-mut (V600E); cited from earlier work
RPMI-7951 [3] = conditions: BRAF-mut (V600E), COT Amplification; cited from earlier work
melanoma = conditions: phase I and II clinical trials; cited from earlier work
SK-MEL-28 [4] = assay: EGF stimulation in the presence of PLX-4702 or U0126 (FIGS. 33 and 34); format: cell-based
Text: (§1) Protein levels measured include pAKT, pErk, pMEK.

RPMI-7951 [5] = assay: PDGFRβ activation in the absence or presence of U0126 or PLX-4702 (FIG. 36); format: cell-based
Text: as §1

RPMI-7951 [6] = assay: PDGFβ stimulation and MEK inhibition of PDGFβ stimulation (FIGS. 23 and 24); format: cell-based; conditions: MEK inhibition of PDGFβ stimulation
RPMI-7951 cells = assay: EGF stimulation and PLX or MEK inhibition (FIG. 35); format: cell-based
Text: Protein levels measured include pAKT, pErk, pMEK and pEGFR.

SK-MEL-21 = conditions: MEK inhibition of PDGFβ stimulation
SK-MEL-31 cells = conditions: MEK inhibition, absence of EGF stimulation
Text: (§2) Protein levels measured include pAKT, pErk, pGSK3β, pP70S6k, pSTAT3, and pEGFR.

SK-MEL-2 = conditions: MEK inhibition of PDGFβ stimulation
Text: as §2

SK-MEL-28 [7] = conditions: MEK inhibition of PDGFβ stimulation
Text: as §2

SK-MEL-28 cells = conditions: MEK inhibition, absence of EGF stimulation
Text: as §2

[8] = system: Breast Cancer Cell lines (BT-474, MDA-MD-231, SKBR3, HCC-1937, BT-20, T47D, MCF-7, BT-549); conditions: EGF 200 ng/ml with U0126 1 μM
Procedure: Breast Cancer Cell lines (BT-474, MDA-MD-231, SKBR3, HCC-1937, BT-20, T47D, MCF-7, BT-549) are propagated and removed from the plate by gentle scraping to simulate a FNA biopsy sample. Following removal, the cells were placed on the SnapPath™ live-tumor-cell processing platform (BioMarker Strategies, LLC) to evoke ex vivo biomarkers. SnapPath™ disperses the sample, enriches for tumor cells, aliquots into test wells, and applies ex vivo stimulation by EGF (200 ng/ml) in the presence or absence of the MEK inhibitor, U0126 (1 μM). Cell lysates are then analyzed using the BioPlex platform for the following phosphoproteins: p-Erk 1/2, p-AKT, p-EGFR, p-Stat3 (BioRad). Functional profiles are generated for each cell line based on the levels of phosphoproteins.

[9] = system: Breast cancer cell lines (MCF-7, HCC-1937, MDA-MB-231, BT474, and SKBR3); assay: EGF stimulation, phosphoprotein modulation score, cell line panel; format: cell-based; conditions: 200 ng/ml EGF 5 minutes
Procedure: (§3) Breast cancer cell lines (MCF-7, HCC-1937, MDA-MB-231, BT474, and SKBR3) are exposed to either vehicle (control) or stimulated with 200 ng/ml epidermal growth factor (EGF) for 5 minutes then lysed and proteins extracted. Mean Fluorescence Intensity (MFI) levels of six phosphoproteins (pEGFR, pErk, pAKT, pP70S6K, pGSK3β, and pSTAT3) are determined in sextuplet using a multiplexed bead-immunoassay (BioPlex, BioRad) and a modulation score (MS), defined as the log 2 (MFI stimulated/MFI control), calculated for each. Scores are ranked by percentile relative to the median (0.66) and inter-quartile range (IQR) (1.54). Moderate responders are classified as those with MS between the 75th percentile (2.20) and the 75th percentile plus the IQR (3.74). High responders are those MS>3.74. Low responders are those MS falling between the IQR and 75th percentile (1.54-2.20) whereas non responders are classified as MS<1.54.

SKBR3 = assay: EGF stimulation, phosphoprotein modulation score (BioPlex bead-immunoassay); format: cell-based; conditions: 200 ng/ml EGF 5 minutes
Procedure: as §3

BT474 = assay: as above; format: cell-based; conditions: 200 ng/ml EGF 5 minutes
Procedure: as §3

HCC-1937 = assay: as above; format: cell-based; conditions: 200 ng/ml EGF 5 minutes
Procedure: as §3

MCF-7 cells = assay: as above; format: cell-based; conditions: 200 ng/ml EGF 5 minutes
Procedure: as §3

SK-MEL-31 [10] = assay: Melanoma functional signaling profile upon EGF stimulation (FIG. 15); format: cell-based
Procedure: (§4) Protein levels are measured for pAKT, pERK, pGSK3, p70S6K, pSTAT, pEGFR in RPMI-7951, SK-MEL 2, SK-MEL 28, and SK-MEL 31 cells. Fold changes are calculated for protein level before and after EGF stimulation.

RPMI-7951 [11] = assay: as above; format: cell-based
Procedure: as §4

CCCS(=O)(=O)Nc1ccc(F)c(C(=O)c2c[nH]c3ncc(-c4ccc(Cl)cc4)cc23)c1F [PLX-4032]
PLX-4032 Phenotype (SK-MEL-31 [1]): resistance; also recorded: Resistant | PLX-4032 Phenotype (SK-MEL-28 [2]): Sensitive | PLX-4032 Phenotype (RPMI-7951 [3]): resistance; also recorded: Resistant | response rate (melanoma): remarkable response rate

CCCS(=O)(=O)Nc1ccc(F)c(C(=O)c2c[nH]c3ncc(Cl)cc23)c1F [PLX-4702]
pERk expression (SK-MEL-28 [4]; PLX inhibition plus EGF stimulation): reduced | pMEK (RPMI-7951 [5]; presence of PLX-4702): down-regulated

N#CC(=C(/N)Sc1ccccc1N)/C(C#N)=C(\N)Sc1ccccc1N [U0126]
reduction of pErk (RPMI-7951 [6]): approximately 50% | pErk (RPMI-7951 cells; EGF stimulation, MEK inhibition): decreased | reduction of pErk (SK-MEL-21): approximately 50% | pMEK (SK-MEL-28 [4]; MEK inhibitor and EGF): increased | pAkt (SK-MEL-31 cells): upregulated | pErk (SK-MEL-31 cells): inhibited | pErk (SK-MEL-2): not impacted | reduction of pErk (SK-MEL-28 [7]): approximately 50% | pEGFR (SK-MEL-28 cells): activated | pErk (SK-MEL-28 cells): inhibited | pMEK down-regulation (RPMI-7951 [5]; MEK inhibition): less effective | pAKT phosphorylation level ([8]; another functional group): unanticipated up-regulation of p-AKT | pAKT phosphorylation level ([8]; one functional group): low levels of p-AKT inhibition | pEGFR phosphorylation level ([8]; one functional group): low p-EGFR inhibition | pEGFR phosphorylation level ([8]; other functional group): unanticipated up-regulation of p-EGFR

epidermal growth factor [EGF]
EGFR-phosphorylation response class ([9]; all cells except BT474): high | pGSK3β MS ([9]; all five cell lines): < 1.0 | pP70S6K MS ([9]; all five cell lines): < 1.0 | MS of all other markers across the five cell lines ([9]; markers not named individually): < 1.54 | pErk response class ([9]; other lines tested (not MCF-7, HCC-1937)): none | pEGFR (RPMI-7951 cells; all EGF modulation): dramatically increased | pAKT MS (SKBR3): 1.78 | EGFR-phosphorylation MS (BT474): 2.57 | MS for pErk (HCC-1937): 2.89 | STAT-3 phosphorylation MS (MCF-7 cells): 2.34 | MS for pErk (MCF-7 cells; MS = log 2 (MFI stimulated/MFI control)): 3.92 | induction of pEGFR (SK-MEL-31 [10]): highest induction | induction of pEGFR (RPMI-7951 [11]): highest induction
